Reference: patent US9598391B2, “Substituted chroman compounds as calcium sensing receptor modulators” (LUPIN LIMITED, priority 2012, dated 2017)
Counter-ions that a name gives are not always drawn.

What follows are compounds tested against T1, Calcium Sensing Receptor (CaSR) (Homo sapiens, UniProt P41180) (assay: In-vitro assay of calcimimetics through modulation of Calcium Sensing Receptor (intracellular calcium, FLIPR)). Details: HEK293 cells stably expressing hCaSR, increase in intracellular calcium, Fluo4NW dye, 0.3 mM CaCl2, 8-point assay, read-out: EC50 Range.
T1 construct: expressed in transfected cells
T1 sequence (P41180 20-1078): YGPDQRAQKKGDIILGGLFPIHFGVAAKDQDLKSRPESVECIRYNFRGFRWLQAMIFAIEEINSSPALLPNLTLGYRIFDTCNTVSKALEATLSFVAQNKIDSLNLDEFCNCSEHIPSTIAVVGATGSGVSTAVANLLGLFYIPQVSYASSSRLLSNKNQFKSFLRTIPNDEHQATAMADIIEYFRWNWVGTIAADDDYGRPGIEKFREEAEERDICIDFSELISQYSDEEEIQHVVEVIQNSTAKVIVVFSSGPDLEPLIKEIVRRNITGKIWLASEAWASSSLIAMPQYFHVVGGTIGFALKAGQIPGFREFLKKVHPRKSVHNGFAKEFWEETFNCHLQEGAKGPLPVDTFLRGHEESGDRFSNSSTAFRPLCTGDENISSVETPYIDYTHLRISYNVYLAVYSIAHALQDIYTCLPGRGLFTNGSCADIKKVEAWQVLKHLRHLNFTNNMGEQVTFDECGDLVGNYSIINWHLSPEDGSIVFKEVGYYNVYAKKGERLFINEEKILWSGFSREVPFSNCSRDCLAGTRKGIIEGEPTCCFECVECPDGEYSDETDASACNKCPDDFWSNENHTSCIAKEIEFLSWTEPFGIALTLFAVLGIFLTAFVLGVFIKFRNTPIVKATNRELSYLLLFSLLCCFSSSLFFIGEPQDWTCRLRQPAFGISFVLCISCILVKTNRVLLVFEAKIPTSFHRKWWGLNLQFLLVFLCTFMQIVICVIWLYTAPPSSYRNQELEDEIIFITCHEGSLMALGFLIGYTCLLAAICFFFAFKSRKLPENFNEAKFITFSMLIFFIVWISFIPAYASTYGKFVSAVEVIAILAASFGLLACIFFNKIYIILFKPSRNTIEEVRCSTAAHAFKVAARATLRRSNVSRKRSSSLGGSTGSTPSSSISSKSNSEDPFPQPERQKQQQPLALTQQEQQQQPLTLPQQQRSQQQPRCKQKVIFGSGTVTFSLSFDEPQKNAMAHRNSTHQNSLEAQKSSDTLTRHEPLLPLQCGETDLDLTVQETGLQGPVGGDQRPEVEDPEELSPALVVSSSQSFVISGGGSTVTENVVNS
Format: cell-based
Protocol: In-vitro assay method of Calcimimetics through modulation of Calcium Sensing Receptor (CaSR):
The ability of the compounds to modulate Calcium sensing receptor is determined by measuring an increase in intracellular calcium [Ca^2+]i. Stably transfected HEK293 cells expressing hCaSR_pTriEx-3 hygro vector are developed. Cells are grown overnight on a 96-well plate to 80% confluency in Ham's F12 containing 20% FBS at 37° C., 5% CO2. Subsequently, cells are washed extensively with 20 mM HEPES buffer containing 126 mM […], 1 mM MgCl2 and 4 mM KCl to remove serum components that might interfere with the assay. Cells are loaded with calcium sensing Fluo4NW dye in HEPES base buffer containing 0.1% BSA and 1 mg/ml glucose for 30 minutes to measure changes in intracellular calcium. The activities of the compounds are measured in FLIPR using 0.3 mM CaCl2 in 20 mM HEPES base buffer. The effectiveness of the compound to modulate receptor activity is determined by calculating the EC50 responses for that compound in an 8-point assay and plotted using GraphPad Prism 5.

Structure (SMILES)	EC50
C[C@@H](NC[C@H]1C[C@@H](c2ccc(C(C)(C)C(=O)O)cc2)c2ccccc2O1)c1cccc2ccccc12 [Example 108b, 2-Methyl-2-(4-((2R,4S)-2-((((R)-1-(naphthalen-1-yl)ethyl)amino)methyl)chroman-4-yl)phenyl)propanoic acid hydrochloride]	50 to 200 nM
C[C@@H](NC[C@H]1C[C@H](c2ccc(C(C)(C)C(=O)O)cc2)c2ccccc2O1)c1cccc2ccccc12 [Example 108a, 2-Methyl-2-(4-((2R,4R)-2-((((R)-1-(naphthalen-1-yl)ethyl)amino)methyl)chroman-4-yl)phenyl)propanoic acid hydrochloride]	50 to 200 nM
C[C@@H](NC[C@H]1C[C@H](c2ccc(C(=O)O)cc2)c2ccccc2O1)c1cccc2ccccc12 [Example 98a, 4-((2R,4R)-2-((((R)-1-(Naphthalen-1-yl)ethyl)amino)methyl)chroman-4-yl)benzoic acid hydrochloride]	50 to 200 nM
COc1c(C(=O)O)cccc1[C@@H]1C[C@H](CN[C@H](C)c2cccc3ccccc23)Oc2ccccc21 [Example 89b, 2-Methoxy-3-((2R,4R)-2-((((R)-1-(naphthalen-1-yl)ethyl)amino)methyl)chroman-4-yl)benzoic acid hydrochloride]	< 20 nM
C[C@@H](NC[C@H]1C[C@@H](c2cccc(OC(C)(C)C(=O)O)c2)c2ccccc2O1)c1cccc2ccccc12 [Example 97, 2-Methyl-2-(3-((2R,4S)-2-((((R)-1-(naphthalen-1-yl)ethyl)amino)methyl)chroman-4-yl)phenoxy)propanoic acid hydrochloride]	20 to 50 nM
C[C@@H](NC[C@H]1C[C@H](c2ccc(F)c(OCC(=O)O)c2)c2ccccc2O1)c1cccc2ccccc12 [Example 93a, 2-(2-Fluoro-5-((2R,4R)-2-((((R)-1-(naphthalen-1-yl)ethyl)amino)methyl)chroman-4-yl)phenoxy)acetic acid hydrochloride]	< 20 nM
C[C@@H](NC[C@H]1C[C@@H](c2ccc(C(=O)O)cc2)c2ccccc2O1)c1cccc2ccccc12 [Example 98b, 4-((2R,4S)-2-((((R)-1-(Naphthalen-1-yl)ethyl)amino)methyl)chroman-4-yl)benzoic acid hydrochloride]	50 to 200 nM
Cc1c(C(=O)O)ccc(F)c1[C@@H]1C[C@H](CN[C@H](C)c2cccc3ccccc23)Oc2ccccc21 [Example 81b, 4-Fluoro-2-methyl-3-((2R,4R)-2-((((R)-1-(naphthalen-1-yl)ethyl)amino)methyl)chroman-4-yl)benzoic acid hydrochloride]	< 20 nM
C[C@@H](NCCC[C@H]1C[C@@H](c2ccc(C(=O)O)cc2)c2ccccc2O1)c1ccc(F)c2ccccc12 [Example 136, 4-((2S,4S)-2-(3-(((R)-1-(4-Fluoronaphthalen-1-yl)ethyl)amino)propyl)chroman-4-yl)benzoic acid hydrochloride]	< 20 nM
Cc1cc(C(=O)O)cc([C@@H]2C[C@H](CN[C@H](C)c3cccc4ccccc34)Oc3ccccc32)c1 [Example 75, 3-Methyl-5-((2R,4S)-2((((R)-1-(naphthalen-1-yl)ethyl)amino)methyl)chroman-4-yl)benzoic acid hydrochloride]	< 20 nM
Cc1ccc([C@@H]2C[C@H](CN[C@H](C)c3ccc(F)c4ccccc34)Oc3ccccc32)cc1C(=O)O [Example 119b, 5-((2R,4S)-2-((((R)-1-(4-Fluoronaphthalen-1-yl)ethyl)amino)methyl)chroman-4-yl)-2-methyl benzoic acid hydrochloride]	< 20 nM
C[C@@H](NC[C@H]1C[C@@H](c2cc(F)c(C(=O)O)c(F)c2)c2ccccc2O1)c1cccc2ccccc12 [Example 101, 2,6-Difluoro-4-((2R,4S)-2-((((R)-1-(naphthalen-1-yl)ethyl)amino)methyl)chroman-4-yl)benzoic acid hydrochloride]	20 to 50 nM
Cc1ccc([C@@H]2C[C@H](CN[C@H](C)c3cccc4ccccc34)Oc3ccccc32)cc1C(=O)O [Example 84b, 2-Methyl-5-((2R,4S)-2-((((R)-1-(naphthalen-1-yl)ethyl)amino)methyl)chroman-4-yl)benzoic acid hydrochloride]	< 20 nM
C[C@@H](NC[C@H]1C[C@@H](c2ccc(C(=O)O)c(F)c2)c2ccccc2O1)c1cccc2ccccc12 [Example 104, 2-Fluoro-4-((2R,4S)-2-((((R)-1-(naphthalen-1-yl)ethyl)amino)methyl)chroman-4-yl)benzoic acid hydrochloride]	< 20 nM
Cc1ccc([C@@H]2C[C@H](CN[C@H](C)c3cccc4ccccc34)Oc3ccccc32)cc1OCC(=O)O [Example 91, 2-(2-Methyl-5-((2R,4S)-2-((((R)-1-(naphthalen-1-yl)ethyl)amino)methyl)chroman-4-yl)phenoxy)acetic acid hydrochloride]	< 20 nM
C[C@@H](NC[C@H]1C[C@@H](c2ccc(OCC(=O)O)cc2)c2ccccc2O1)c1cccc2ccccc12 [Example 105b, 2-(4-((2R,4S)-2-((((R)-1-(Naphthalen-1-yl)ethyl)amino)methyl)chroman-4-yl)phenoxy)acetic acid hydrochloride]	< 20 nM
Cc1ccc([C@@H]2C[C@H](CN[C@H](C)c3cccc4ccccc34)Oc3ccccc32)c(C)c1C(=O)O [Example 67, 2,6-Dimethyl-3-((2R,4S)-2-((((R)-1-(naphthalen-1-yl)ethyl)amino)methyl)chroman-4-yl)benzoic acid hydrochloride]	< 20 nM
C[C@@H](NC[C@H]1C[C@@H](c2cccc(C(=O)NCC(=O)O)c2)c2ccccc2O1)c1cccc2ccccc12 [Example 140, 2-(3-((2R,4S)-2-((((R)-1-(Naphthalen-1-yl)ethyl)amino)methyl)chroman-4-yl)benzamido) acetic acid hydrochloride]	< 20 nM
C[C@@H](NC[C@H]1C[C@@H](c2ccc(C(F)(F)F)c(C(=O)O)c2)c2ccccc2O1)c1cccc2ccccc12 [Example 83, 5-((2R,4S)-2-((((R)-1-(Naphthalen-1-yl)ethyl)amino)methyl)chroman-4-yl)-2-(trifluoromethyl)benzoic acid hydrochloride]	< 20 nM
Cc1c(C(=O)O)ccc(F)c1[C@H]1C[C@H](CN[C@H](C)c2cccc3ccccc23)Oc2ccccc21 [Example 81a, 4-Fluoro-2-methyl-3-((2R,4S)-2-((((R)-1-(naphthalen-1-yl)ethyl)amino)methyl)chroman-4-yl)benzoic acid hydrochloride]	50 to 200 nM
COc1cc(C(=O)O)ccc1[C@@H]1C[C@H](CN[C@H](C)c2cccc3ccccc23)Oc2ccccc21 [Example 102b, 3-Methoxy-4-((2R,4S)-2-((((R)-1-(naphthalen-1-yl)ethyl)amino)methyl)chroman-4-yl)benzoic acid hydrochloride]	< 20 nM
COc1c(C(=O)O)cccc1[C@H]1C[C@H](CN[C@H](C)c2cccc3ccccc23)Oc2ccccc21 [Example 89a, 2-Methoxy-3-((2R,4S)-2-((((R)-1-(naphthalen-1-yl)ethyl)amino)methyl)chroman-4-yl)benzoic acid hydrochloride]	20 to 50 nM
C[C@@H](NC[C@H]1C[C@@H](c2ccc(F)c(OCC(=O)O)c2)c2ccccc2O1)c1cccc2ccccc12 [Example 93b, 2-(2-Fluoro-5-((2R,4S)-2-((((R)-1-(naphthalen-1-yl)ethyl)amino)methyl)chroman-4-yl)phenoxy)acetic acid hydrochloride]	< 20 nM
